# Source: patent US20250354998A1, “METHODS OF DIAGNOSING AND TREATING MULTIPLE SCLEROSIS BY DETECTING A BIOMARKER IN THE CEREBROSPINAL FLUID” (Principia Biopharma Inc., priority 2023, published 2025)
# Legend:
# CXCL13 = CXCL13 protein level in CSF by MSD (meso scale discovery); type: in vivo, human; details: MSD (FIG. 6); twelve week and forty-eight week course of tolebrutinib vs untreated, HAM/TSP or continued ocrelizumab
# Text: HV: health volunteer; HAM/TSP: HTLV-1 associated myelopathy/tropical spastic paraparesis without treatment; MS_untreated: subjects with MS but have not been treated; MS_ocrelizumab: subjects treated only with an anti-CD20 antibody; MS_tolebrutinib: subjects treated with daily doses of tolebrutinib.
# Similarly, this decrease was seen when comparing subjects who continued treatment with the anti-CD20 antibody (ocrelizumab) with subjects treated with a twelve week and forty-eight week course of tolebrutinib. FIGS. 4D, 5, and 6.
# [1] = tested on: CSF proteome (Olink Explore 384 panels, 1463 analytes); assay: Olink proteomics of cerebrospinal fluid of MS patients under therapy; type: in vivo, human
# Procedure: In the present study, a platform technology (Olink® Proteomics) was used. This test utilizes a high throughput, multiplex immunoassay technology that enables the measurement of over 1000 proteins from small sample volumes. See e.g., Assarsson E, et al. PLoS One 2014; 9(4): e95192; and Cui M, et al. Lab Invest 2022, each of which is incorporated by reference in its entirety. Two sets of subjects were analyzed. First, Olink proteomics technology was used to profile the baseline CSF proteome of untreated MS patients. Second, alterations to the MS CSF proteome upon therapeutic intervention with either a B cell depleting agent alone or after transitioning to tolebrutinib, a brain penetrant Bruton's tyrosine kinase (BTK) inhibitor, was evaluated.
# To establish a baseline of proteomic expression, an Olink proteomics assay was performed on the CSF of multiple groups of subjects, including healthy volunteers (HV), HTLV 1 associated myelopathy/tropical spastic paraparesis (HAM/TSP) patients, radiologically isolated syndrome (RIS) patients, clinically isolated syndrome (CIS) patients, and multiple sclerosis (MS) patients, including patients with relapsing remitting MS (RRMS), secondary progressive MS (SPMS), and primary progressive MS (PPMS). CSF samples were collected from 31 healthy volunteers and 71 treatment-naïve subjects with MS. The CSF proteome was examined using the Cardiometabolic, Inflammation, Neurology, and Oncology Olink Explore 384 panels (1463 analytes total).
# Next, it was examined whether treatment with different therapies for patients having MS would result in differential proteome expression. A group of subjects with MS were treated either with an anti-CD20 antibody alone or with an anti-CD20 antibody and then transitioning to tolebrutinib, and their proteome was examined using similar techniques described in Example 1B. More specifically, the cohort of MS patients in this example included untreated patients, patients treated with a B cell depleting agent for at least six months, and patients 12 weeks and 48 weeks after transitioning from a B cell depletion therapy to tolebrutinib in a clinical trial (NCT04742400).
# Several participants (age [mean±standard deviation]: 48.2±7.9 years; sex: 2 female) who had been treated with ocrelizumab for >6 months (median: 3.2 years; range: 1.8-4.0 years) were included. Participants had no signs of acute focal inflammation based on magnetic resonance imaging. CSF was collected before baseline (within 6 months since last ocrelizumab infusion), and at 12 and 48 weeks after transitioning to tolebrutinib 60 mg.
# The data were sorted into two sets of comparisons. The comparisons include (1) subjects treated with an anti-CD20 antibody compared to untreated MS subjects (FIG. 3) and (2) subjects treated with tolebrutinib after transitioning from an anti-CD20 antibody compared to subjects treated with an anti-CD20 antibody (FIG. 4A).
# [2] = CSF, 48 weeks after transitioning from anti-CD20 antibody to tolebrutinib 60 mg vs anti-CD20 antibody
# [3] = CSF, 48 weeks post-transition to tolebrutinib vs anti-CD20
# [4] = CSF, subjects treated with anti-CD20 antibody for at least six months vs untreated MS subjects
compound,measurement,setting,value
"C=CC(=O)N1CCC[C@@H](n2c(=O)n(-c3ccc(Oc4ccccc4)cc3)c3c(N)nccc32)C1 [tolebrutinib, (R)-1-(1-acryloylpiperidin-3-yl)-4-amino-3-(4-phenoxyphenyl)-1H-imidazo[4,5-c]pyridin-2(3H)-one]",CXCL13 in CSF,CXCL13,decrease
same,"example biomarkers NEFL, CXCL13, CXCL10, CD27, CCL4 and CCL3 in CSF",[1]; 48 weeks after transitioning from anti-CD20 therapy to tolebrutinib,disease-reversed proteins
same,ANGPT1 Fold-Change (48wkBTKi. vs. antiCD20),[1]; [2],−1.658
same,ANGPTL2 Fold-Change (48wkBTKi. vs. antiCD20),[1]; [2],−3.266
same,ATXN10 Fold-Change (48wkBTKi. vs. antiCD20),[1]; [2],−6.437
same,CCL3 Fold-Change (48wkBTKi. vs. antiCD20),[1]; [2],−2.142
same,CCL4 Fold-Change (48wkBTKi. vs. antiCD20),[1]; [2],−2.092
same,CCL8 Fold-Change (48wkBTKi. vs. antiCD20),[1]; [2],−2.68
same,CCL11 Fold-Change (48wkBTKi. vs. antiCD20),[1]; [2],−1.9597
same,CCN4 Fold-Change (48wkBTKi. vs. antiCD20),[1]; [2],−1.611
same,CD4 Fold-Change (48wkBTKi. vs. antiCD20),[1]; [2],−1.706
same,CD8A Fold-Change (48wkBTKi. vs. antiCD20),[1]; [2],−1.75
same,CD38 Fold-Change (48wkBTKi. vs. antiCD20),[1]; [2],−2.035
same,CD276 Fold-Change (48wkBTKi. vs. antiCD20),[1]; [2],−2.173
same,CD302 Fold-Change (48wkBTKi. vs. antiCD20),[1]; [2],−1.5791
same,CDH3 Fold-Change (48wkBTKi. vs. antiCD20),[1]; [2],−2.293
same,CDNF Fold-Change (48wkBTKi. vs. antiCD20),[1]; [2],−2.1
same,CGREF1 Fold-Change (48wkBTKi. vs. antiCD20),[1]; [2],−1.535
same,CHRDL1 Fold-Change (48wkBTKi. vs. antiCD20),[1]; [2],−2.236
same,CLEC4C Fold-Change (48wkBTKi. vs. antiCD20),[1]; [2],−1.714
same,CLUL1 Fold-Change (48wkBTKi. vs. antiCD20),[1]; [2],−2.021
same,CTRC Fold-Change (48wkBTKi. vs. antiCD20),[1]; [2],−2.869
same,CXCL1 Fold-Change (48wkBTKi. vs. antiCD20),[1]; [2],−3.054
same,CXCL8 Fold-Change (48wkBTKi. vs. antiCD20),[1]; [2],−1.605
same,CXCL10 Fold-Change (48wkBTKi. vs. antiCD20),[1]; [2],−3.598
same,DRAXIN Fold-Change (48wkBTKi. vs. antiCD20),[1]; [2],−2.047
same,HS3ST3B1 Fold-Change (48wkBTKi. vs. antiCD20),[1]; [2],−1.708
same,HYOU1 Fold-Change (48wkBTKi. vs. antiCD20),[1]; [2],−1.676
same,IL5RA Fold-Change (48wkBTKi. vs. antiCD20),[1]; [2],−1.716
same,IL11 Fold-Change (48wkBTKi. vs. antiCD20),[1]; [2],−6.841
same,KAZALD1 Fold-Change (48wkBTKi. vs. antiCD20),[1]; [2],−1.548
same,KRT18 Fold-Change (48wkBTKi. vs. antiCD20),[1]; [2],−1.6528
same,LPL Fold-Change (48wkBTKi. vs. antiCD20),[1]; [2],−1.744
same,LTA Fold-Change (48wkBTKi. vs. antiCD20),[1]; [2],−1.552
same,MATN3 Fold-Change (48wkBTKi. vs. antiCD20),[1]; [2],−1.889
same,MFAP5 Fold-Change (48wkBTKi. vs. antiCD20),[1]; [2],−2.536
same,MSLN Fold-Change (48wkBTKi. vs. antiCD20),[1]; [2],−2.068
same,MZB1 Fold-Change (48wkBTKi. vs. antiCD20),[1]; [2],−1.968
same,NEFL Fold-Change (48wkBTKi. vs. antiCD20),[1]; [2],−3.42
same,NPDC1 Fold-Change (48wkBTKi. vs. antiCD20),[1]; [2],−2.471
same,NPTX1 Fold-Change (48wkBTKi. vs. antiCD20),[1]; [2],−2.103
same,NPY Fold-Change (48wkBTKi. vs. antiCD20),[1]; [2],−1.797
same,NTproBNP Fold-Change (48wkBTKi. vs. antiCD20),[1]; [2],−2.314
same,NUB1 Fold-Change (48wkBTKi. vs. antiCD20),[1]; [2],−1.624
same,NUCB2 Fold-Change (48wkBTKi. vs. antiCD20),[1]; [2],−2.551
same,PDCD5 Fold-Change (48wkBTKi. vs. antiCD20),[1]; [2],−2.511
same,PRL Fold-Change (48wkBTKi. vs. antiCD20),[1]; [2],−3.416
same,ROBO1 Fold-Change (48wkBTKi. vs. antiCD20),[1]; [2],−1.511
same,RTBDN Fold-Change (48wkBTKi. vs. antiCD20),[1]; [2],−2.625
same,SCG2 Fold-Change (48wkBTKi. vs. antiCD20),[1]; [2],−2.959
same,SCG3 Fold-Change (48wkBTKi. vs. antiCD20),[1]; [2],−2.2848
same,SPRY2 Fold-Change (48wkBTKi. vs. antiCD20),[1]; [2],−1.907
same,STC1 Fold-Change (48wkBTKi. vs. antiCD20),[1]; [2],−1.863
same,TDGF1 Fold-Change (48wkBTKi. vs. antiCD20),[1]; [2],−4.457
same,TIMP4 Fold-Change (48wkBTKi. vs. antiCD20),[1]; [2],−1.776
same,TNFRSF6B Fold-Change (48wkBTKi. vs. antiCD20),[1]; [2],−2.999
same,TNFRSF13B Fold-Change (48wkBTKi. vs. antiCD20),[1]; [2],−2.063
same,WFIKKN2 Fold-Change (48wkBTKi. vs. antiCD20),[1]; [2],−2.432
same,WIF1 Fold-Change (48wkBTKi. vs. antiCD20),[1]; [2],−1.994
same,share of disease-associated proteins reverting towards levels observed in healthy volunteers,"[1]; CSF, 48 weeks after transitioning to tolebrutinib from a B-cell depleting therapy",47%
same,number of proteins with decreased abundance,[1]; [3],60 proteins
same,number of proteins with increased abundance,[1]; [3],0 proteins
same,proteins with increased abundance in subjects with MS (relative to HV) that were reversed,"[1]; CSF, 48 weeks post-transitioning to tolebrutinib relative to anti-CD20 baseline levels",30 proteins
same,CXCL10 in CSF,"[1]; Olink, subjects who switched from ocrelizumab to tolebrutinib (12 and 48 weeks)",downregulated
same,CXCL13 in CSF,"[1]; Olink, subjects who switched from ocrelizumab to tolebrutinib, twelve week and forty-eight week course",downregulated
"anti-CD20 antibody: B cell depleting agent; participants had been treated with ocrelizumab, humanized monoclonal antibody directed against the CD20 antigen",CD6 Fold-change (antiCD20. vs. Untreated),[1]; [4],−1.8
same,CD22 Fold-change (antiCD20. vs. Untreated),[1]; [4],−2.442
same,FCRL1 Fold-change (antiCD20. vs. Untreated),[1]; [4],−2.744
same,SORD Fold-change (antiCD20. vs. Untreated),[1]; [4],2.045
